# Experimental data reported in patent US11298422B2, “Treating tumors with TTFields and an aurora kinase inhibitor” (Novocure Limited, priority 2018, dated 2022).
# Read-outs that look alike come from different tables or passages of the source.
# What was measured:
# U87-MG [1] = test: Cytotoxicity assay (cell count at end of treatment), U87-MG; assay type: cell-based, human; conditions: for cytotoxic effect, Observed TTFields + AZD1152 / cytotoxic effect, AZD1152: 72 h; for cytotoxic effect, Observed TTFields + AZD1152: percentage of control; for cytotoxic effect, Expected: expected value for the combination; for cytotoxic effect, AZD1152: number of cells as percentage of control
# Protocol: (§1) The effects of the combined treatment of TTFields and the Aurora B kinase inhibitor AZD1152 was tested in 3 different glioma cell lines: U87-MG, U87-MG^shp53 and U-251. TTFields ([…], 200 kHz) were applied for 72 hours using the Inovitro system. AZD1152 was added to the media in concentrations of up to 100 nmol/L. Cell counts, cell cycle, and clonogenic potential were determined at the end of treatment. Formation of multinuclear cells was determined using microscopic images of cells stained with crystal violet.
# (§2) The effects of the combined treatment of TTFields and AZD1152 was tested using the following human glioma cell lines: U87-MG (ATCC), U-251 (ECACC) and U87-mG^shp53 (provided by Dr. Achim Temme). All cells were grown in a humidified incubator supplied with 5% CO2. Cells were maintained in EMEM, supplemented with 10% FBS, 2 mmol/L glutamine, Pen-Strep solution (100 units/ml Penicillin and 0.1 mg/ml Streptomycin), 1 mmol/L sodium pyruvate and 1% NEAA. U87-MG^shp53 cells were maintained under selection with […] geneticin. AZD1152 was obtained from Sigma, Israel.
# (§3) TTFields (1.6 V/cm RMS, 200 kHz) were applied for 72 hours using the Inovitro system. At the end of treatment, inhibition of tumor cell growth was analyzed quantitatively based on cell count. Clonogenic survival of U87-MG, U87-MG^shp53 and U-251 was tested by plating triplicates of 300 cells/dish in 6 wells dishes. After 2-3 weeks, cells were stained with crystal violet and the number of clones was quantified. Overall effect was calculated by multiplying the percentage of surviving cells at the end of treatment with the percentage of colonies formed vs. control.
# U87-MG^shp53 = test: Cytotoxicity assay (cell count at end of treatment), U87-MG^shp53; assay type: cell-based, human; conditions: for cytotoxic effect, Observed TTFields + AZD1152 / cytotoxic effect, AZD1152: 72 h; for cytotoxic effect, Observed TTFields + AZD1152: percentage of control; for cytotoxic effect, Expected: expected value for the combination; for cytotoxic effect, AZD1152: number of cells as percentage of control
# Protocol: as §1, §2, §3
# U-251 = test: Overall effect based on the clonogenic assay, U-251; assay type: cell-based, human; conditions: for overall effect, Observed TTFields + AZD1152 / overall effect, AZD1152: 72 h; for overall effect, Observed TTFields + AZD1152: clonogenic assay; for overall effect, Expected: expected value for the combination; for overall effect, AZD1152: based on the clonogenic assay
# Protocol: as §1, §2, §3
# The overall effect for U-251 cells was determined based on the clonogenic assay. Response to TTFields application alone led to about 50% reduction in the clonogenic potential of U-251 cells (FIG. 1E).
# U87-MG [2] = test: Flow cytometry analysis of DNA contents (ploidy), U87-MG; assay type: cell-based, human; conditions: 72 h
# Protocol: For cell cycle analysis, cells were removed with Trypsin immediately after 72 h treatment, washed twice with ice-cold PBS with 1% FBS and fixed with 70% ice-cold ethanol for 30 min. After fixation, cells were washed twice with ice-cold PBS with 1% FBS, pelleted and incubated in PBS containing 10 μg/ml RNase and 7.5 μg/ml7-AAD (Sigma-Aldrich) at 37° C. for 30 min. Cell cycle distribution was then quantified using the EC800 flow cytometer (Sony Biotechnology, Japan).
# FIGS. 3A-D and 4A-E show U87-MG and U87-MG^shp53 FACS analysis of DNA contents following treatment with TTFields and AZD1152. More specifically, FIGS. 3A-D depict increased polyploidy in U87-MG cells following the combined treatment of TTFields (200 kHz, 1.6 V/cm RMS) at various AZD1152 concentrations; and FIGS. 4A-E depict increased polyploidy in U87-MG^shp53 cells following the combined treatment of TTFields (200 kHz, 1.6 V/cm RMS) at various AZD1152 concentrations.
# Tables 1 and 2 depict, for U87-MG and U87-MG^shp53 respectively, numeric data corresponding to FIGS. 3 and 4. The columns in tables 1 and 2 represent the DNA copy number (e.g., 2n is the normal number of chromosomes (23 pairs=46), 4n is twice the number of chromosomes, etc.).
# [3] = patients with advanced solid tumors, cited from earlier work
# [4] = AZD1152 25 nM + TTFIELDS 200 kHz 1.6 V/cm RMS
# [5] = AZD1152 25 nM, CONTROL (no TTFields)
# [6] = AZD1152 50 nM + TTFIELDS 200 kHz 1.6 V/cm RMS
# [7] = AZD1152 50 nM, CONTROL (no TTFields)
# [8] = AZD1152 100 nM + TTFIELDS 200 kHz 1.6 V/cm RMS
# [9] = AZD1152 100 nM, CONTROL (no TTFields)
compound,measurement,setting,value
"CCN(CCCOc1ccc2c(Nc3cc(CC(=O)Nc4cccc(F)c4)n[nH]3)ncnc2c1)CCOP(=O)(O)O [AZD1152, Barasertib]","cytotoxic effect, Observed TTFields + AZD1152",U87-MG [1]; AZD1152 25 nM + TTFields 200 kHz 1.6 V/cm RMS,13.5%
same,"cytotoxic effect, Expected",U87-MG [1]; AZD1152 25 nM + TTFields,23.5%
same,"cytotoxic effect, AZD1152",U87-MG [1]; AZD1152 25 nM alone,46%
same,"cytotoxic effect, Observed TTFields + AZD1152",U87-MG [1]; AZD1152 50 nM + TTFields 200 kHz 1.6 V/cm RMS,8.5%
same,"cytotoxic effect, Expected",U87-MG [1]; AZD1152 50 nM + TTFields,13.0%
same,"cytotoxic effect, AZD1152",U87-MG [1]; AZD1152 50 nM alone,25.5%
same,"cytotoxic effect, Observed TTFields + AZD1152",U87-MG [1]; AZD1152 100 nM + TTFields 200 kHz 1.6 V/cm RMS,4.0%
same,"cytotoxic effect, Expected",U87-MG [1]; AZD1152 100 nM + TTFields,4.8%
same,"cytotoxic effect, AZD1152",U87-MG [1]; AZD1152 100 nM alone,9.5%
same,cytotoxic effect of combined treatment of TTFields and AZD1152,"U87-MG [1]; TTFields 200 kHz 1.6 V/cm RMS 72 hours, 2-way ANOVA, p<0.001",significant enhancement of the cytotoxic effect
same,IC50,"U87-MG^shp53; Homo sapiens, U87-MG^shp53, AZD1152 alone, 72 hours",~0.05 µM
same,"cytotoxic effect, Observed TTFields + AZD1152","U87-MG^shp53; U87-MG^shp53, AZD1152 25 nM + TTFields 200 kHz 1.6 V/cm RMS",22.5%
same,"cytotoxic effect, Expected","U87-MG^shp53; U87-MG^shp53, AZD1152 25 nM + TTFields",42.2%
same,"cytotoxic effect, AZD1152","U87-MG^shp53; U87-MG^shp53, AZD1152 25 nM alone",71%
same,"cytotoxic effect, Observed TTFields + AZD1152","U87-MG^shp53; U87-MG^shp53, AZD1152 50 nM + TTFields 200 kHz 1.6 V/cm RMS",10.5%
same,"cytotoxic effect, Expected","U87-MG^shp53; U87-MG^shp53, AZD1152 50 nM + TTFields",27.7%
same,"cytotoxic effect, AZD1152","U87-MG^shp53; U87-MG^shp53, AZD1152 50 nM alone",46.5%
same,"cytotoxic effect, Observed TTFields + AZD1152","U87-MG^shp53; U87-MG^shp53, AZD1152 100 nM + TTFields 200 kHz 1.6 V/cm RMS",4.5%
same,"cytotoxic effect, Expected","U87-MG^shp53; U87-MG^shp53, AZD1152 100 nM + TTFields",8.9%
same,"cytotoxic effect, AZD1152","U87-MG^shp53; U87-MG^shp53, AZD1152 100 nM alone",15%
same,cytotoxic effect of combined treatment of TTFields and AZD1152,"U87-MG^shp53; U87-MG^shp53, 2-way ANOVA, p<0.001",significant enhancement of the cytotoxic effect
same,"overall effect, Observed TTFields + AZD1152","U-251; U-251, AZD1152 6.25 nM + TTFields 200 kHz 1.6 V/cm RMS",8.0%
same,"overall effect, Expected","U-251; U-251, AZD1152 6.25 nM + TTFields",40.7%
same,"overall effect, AZD1152","U-251; U-251, AZD1152 6.25 nM alone",74%
same,"overall effect, Observed TTFields + AZD1152","U-251; U-251, AZD1152 12.5 nM + TTFields 200 kHz 1.6 V/cm RMS",0.7%
same,"overall effect, Expected","U-251; U-251, AZD1152 12.5 nM + TTFields",8.3%
same,"overall effect, AZD1152","U-251; U-251, AZD1152 12.5 nM alone",15%
same,"overall effect, Observed TTFields + AZD1152","U-251; U-251, AZD1152 25 nM + TTFields 200 kHz 1.6 V/cm RMS",0.2%
same,"overall effect, Expected","U-251; U-251, AZD1152 25 nM + TTFields",1.1%
same,"overall effect, AZD1152","U-251; U-251, AZD1152 25 nM alone",2%
same,"overall effect, Observed TTFields + AZD1152","U-251; U-251, AZD1152 50 nM + TTFields 200 kHz 1.6 V/cm RMS",0.2%
same,"overall effect, Expected","U-251; U-251, AZD1152 50 nM + TTFields",1.1%
same,"overall effect, AZD1152","U-251; U-251, AZD1152 50 nM alone",2%
same,"overall effect, Observed TTFields + AZD1152","U-251; U-251, AZD1152 100 nM + TTFields 200 kHz 1.6 V/cm RMS",0.2%
same,"overall effect, Expected","U-251; U-251, AZD1152 100 nM + TTFields",0.8%
same,"overall effect, AZD1152","U-251; U-251, AZD1152 100 nM alone",1.5%
same,DNA copy number 2n,U87-MG [2]; [4],39%
same,DNA copy number 4n,U87-MG [2]; [4],31%
same,DNA copy number 8n,U87-MG [2]; [4],9%
same,DNA copy number 16n,U87-MG [2]; [4],2%
same,DNA copy number 2n,U87-MG [2]; [5],55%
same,DNA copy number 4n,U87-MG [2]; [5],25%
same,DNA copy number 8n,U87-MG [2]; [5],4%
same,DNA copy number 16n,U87-MG [2]; [5],1%
same,DNA copy number 2n,U87-MG [2]; [6],28%
same,DNA copy number 4n,U87-MG [2]; [6],36%
same,DNA copy number 8n,U87-MG [2]; [6],16%
same,DNA copy number 16n,U87-MG [2]; [6],2%
same,DNA copy number 2n,U87-MG [2]; [7],45%
same,DNA copy number 4n,U87-MG [2]; [7],26%
same,DNA copy number 8n,U87-MG [2]; [7],8%
same,DNA copy number 16n,U87-MG [2]; [7],2%
same,DNA copy number 2n,U87-MG [2]; [8],11%
same,DNA copy number 4n,U87-MG [2]; [8],40%
same,DNA copy number 8n,U87-MG [2]; [8],25%
same,DNA copy number 16n,U87-MG [2]; [8],4%
same,DNA copy number 2n,U87-MG [2]; [9],27%
same,DNA copy number 4n,U87-MG [2]; [9],33%
same,DNA copy number 8n,U87-MG [2]; [9],22%
same,DNA copy number 16n,U87-MG [2]; [9],3%
same,maximum tolerated AZD1152 dose,"[3]; administered as two 2-h infusions (110 mg/day, days 1, 2, 15 and 16)",220 mg
same,maximum tolerated AZD1152 dose,[3]; as a 48-h continuous infusion,150 mg
